TGI data for four molecules are collected here from PubChem BioAssay (NCI).

SMILES strings stand for the structures.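 In this assay, cells in 96-well plates receive the compound at five concentrations for 48 hours. Endpoints are linearly interpolated between the surrounding concentrations. Definition used: TGI = concentration required for complete inhibition of growth.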

Among the test systems are RXF 393 renal; U251 CNS; HS 578T breast; NCI-H226 lung; K-562 leukemia; SNB-19 CNS; LOX IMVI melanoma; HOP-62 NSCLC; SN12C renal; HCC-2998 colon; HCT-116 colon; 786-0 renal; MOLT-4 leukemia; PC-3 prostate; SF-539 CNS; DU-145 prostate; SW-620 colon; NCI/ADR-RES ovarian; SF-268 CNS; T-47D breast.
Common to all, as to test: DTP human tumour cell line panel, 48 h

For orientation: TGI means the concentration giving total growth inhibition. Low readings indicate greater sensitivity of the cells, high ones lower sensitivity of the cells. Turning to `O=C(O)[C@H]1NC[C@@H]2ON=C(Br)[C@@H]21`, the TGI with RXF 393 renal, with U251 CNS, with HS 578T breast, in the assay on NCI-H226 lung, with K-562 leukemia and in the assay with SNB-19 CNS was > 100 µM in each case. In addition, the TGI in the assay on LOX IMVI melanoma, in the assay with HOP-62 NSCLC, in the assay on SN12C renal, in the assay on HCC-2998 colon, in the assay with HCT-116 colon and in the assay with 786-0 renal was > 100 µM each time. Also, the TGI in the assay with MOLT-4 leukemia, in the assay on PC-3 prostate, with SF-539 CNS, with DU-145 prostate, with SW-620 colon and with NCI/ADR-RES ovarian was > 100 µM each time. Besides, the TGI in the assay on SF-268 CNS and in the assay with T-47D breast was > 100 µM in each case.
As for `O=C1O[C@H](COC(=O)c2ccccc2)[C@@H](OC(=O)c2ccccc2)C=C1OC(=O)c1ccccc1`, the TGI with RXF 393 renal was 31.4 µM; in the assay on U251 CNS, 32.3 µM; in the assay with HS 578T breast, > 100 µM; in the assay on NCI-H226 lung, 45.6 µM; in the assay on K-562 leukemia it was 57.4 µM; in the assay on SNB-19 CNS, 35.6 µM. The TGI was 39.3 µM in the assay with LOX IMVI melanoma; 39.4 µM with HOP-62 NSCLC; 36.9 µM in the assay on SN12C renal; > 100 µM with HCC-2998 colon; 32 µM in the assay with HCT-116 colon; 33.7 µM with 786-0 renal. Besides, the TGI with MOLT-4 leukemia is 56 µM; with PC-3 prostate, 62.7 µM; with SF-539 CNS it was 32.5 µM; with DU-145 prostate, > 100 µM; in the assay on SW-620 colon, 35.9 µM; in the assay with NCI/ADR-RES ovarian it was 38.8 µM. The total growth inhibition concentration (TGI) with SF-268 CNS turned out to be 36.8 µM; in the assay on T-47D breast, 54.6 µM.
With `CC1(C)N=C(/C(C#N)=[N+](/[O-])C(=O)c2ccccc2)C(C)(C)N1O`, the TGI in the assay on RXF 393 renal, in the assay on U251 CNS, with HS 578T breast, in the assay on NCI-H226 lung, in the assay with K-562 leukemia and in the assay with SNB-19 CNS was > 100 µM in each case. Besides, the TGI in the assay with LOX IMVI melanoma, in the assay on HOP-62 NSCLC, in the assay with SN12C renal, with HCC-2998 colon, in the assay with HCT-116 colon and in the assay with 786-0 renal was > 100 µM throughout. In addition, the TGI in the assay with MOLT-4 leukemia, in the assay on PC-3 prostate, in the assay on SF-539 CNS, in the assay on DU-145 prostate, with SW-620 colon and with NCI/ADR-RES ovarian was > 100 µM in each case. For the same molecule, the TGI with SF-268 CNS and in the assay with T-47D breast was > 100 µM each time.
For `CC1(C)OCC(C2OC(=O)C(OCc3ccccc3)=C2OCc2ccccc2)O1` (stereo not given), the total growth inhibition concentration (TGI) in the assay with RXF 393 renal, in the assay on U251 CNS, with HS 578T breast, in the assay with NCI-H226 lung, in the assay on K-562 leukemia and with SNB-19 CNS was > 100 µM in each case. Also, the TGI in the assay on LOX IMVI melanoma, in the assay on HOP-62 NSCLC, in the assay with SN12C renal, with HCC-2998 colon, with HCT-116 colon and in the assay with 786-0 renal was > 100 µM each time. Also, the TGI in the assay with MOLT-4 leukemia is 73.1 µM; in the assay on PC-3 prostate, 78.1 µM; with SF-539 CNS, > 100 µM; with DU-145 prostate, > 100 µM; in the assay with SW-620 colon, > 100 µM; with NCI/ADR-RES ovarian it was > 100 µM. In addition, the TGI in the assay on SF-268 CNS and in the assay with T-47D breast was > 100 µM in each case.
